Series [1] can be described thus: pK values of representative molecules in ground state (S0) and first excited singlet state (S1), Table I. In kind it is physicochemical. To be noted: S0 to S1. An excerpt:
As shown by the data of the tables set forth in Ireland et al., the phenomenon is quite general and is characteristic of bases as well as acids. Ireland et al. is hereby incorporated by reference. Values of pK for representative molecules in the ground state (S0) and the first excited singlet state (S1) are given in Table I. Deprotonation results in increased acidity whereas protonation increases the basicity of the solution. […] The change in pK may be quite large.

Series [2] is described as follows: pH jump (more acidic) by 266 nm irradiation of 2-naphthol-6-sulfonate solution.
Excerpt: A single 30 psec pulse 4 at 1064 nm is extracted from the pulse train of mode-locked Nd:YAG laser 1 by means of Blumlein electronic switchout unit 3. The flowing dye 2 serves to mode lock laser 1. A second harmonic of pulse 4 is generated at 532 nm in KDP crystal 5.
Wavelengths other than 532 nm are then removed from pulse 4 by means of spectral filters 6. The 532 nm pulse is reflected from mirror 7 through ADP crystal 8 where it in turn is frequency doubled to produce the fourth harmonic at 266 nm.
Beam splitter 11 directs a portion of the 266 nm pulse to energy meter 20. […] The beam size on sample 12 is ~0.1 mm. […] Appropriate filters 14 are used to isolate various emission bands.
The pH of the solutions was adjusted by addition of reagent grade HCl or NaOH and was measured on a pH meter (Fisher Model 230) accurate to about 0.1 pH unit.
The conditions of series [3]: cited from earlier work; for pK(S0): ground state.
Series [4] in a line: Comparison of proton transfer time and excited state lifetime. The series is classed as physicochemical. Conditions: for proton transfer time: excited state; for ability to produce pH change: on electronic excitation. An excerpt: Consider the situation wherein the proton transfer time for either protonation or deprotonation is longer than the excited state lifetime of the molecules in question. In this situation, it is not possible to achieve an acid-base equilibrium during the excited state lifetime. As a result, some of the photons that could be used to produce protons under acid-base equilibrium conditions are no longer available for this purpose because the excitation produced by them is lost in various decay processes from the excited state (see FIG. 1). It will be apparent therefore, that to maximize the pH change for a particular concentration and radiation fluence, it is highly desirable that the proton transfer time be substantially shorter than the excited state lifetime.
It can, however, be readily determined for any compound of interest by means of time resolved spectroscopy of species in the solution. In the case of an acid reaction of the type shown in reaction (1), these would be the acid AH and the anion A^-. Such spectroscopy permits the concentrations of these species to be ascertained.
The requisite spectroscopic measurements are quite straightforward if (a) the excited states of both AH and A^- fluoresce, (b) the fluorescence from the excited states of AH and A^- is sufficiently spectrally shifted that they can be distinguished from one another, and (c) excited state protonation and deprotonation occur with retention of the electronic excitation. […] In those instances where they are not met it is still possible to obtain the necessary information by means of various techniques well known to those versed in the spectroscopic arts. Thus, for example, lack of fluorescence from the excited states of AH and A^- can be overcome by probing with excited-state absorption spectroscopy rather than emission spectroscopy.

Series [5] is described as follows: Excited state protonation/deprotonation of 2-naphthol-6-sulfonate by picosecond laser/streak camera fluorescence. The series is classed as physicochemical. An excerpt:
A number of runs were made to obtain measurements from which the rates of excited state protonation and deprotonation kf and kb, respectively, could be determined for the reaction: [formula] […] As long as the solution is not so acidic as to make the protonation reaction fast (pH≤3), the rate of excited state proton transfer is simply determined from the risetime of the anion emission.
Since the fluorescence of 2-naphthol-6-sulfonate (λmax ~360 nm) is considerably shifted from that of its anion (λmax ~430 nm), only the anion emission is recorded when 450±10 nm spectral filter 14 is placed between the sample cell 12 and the slit of streak camera 15. FIG. 4 is a plot of the risetime (10-90%) of the emission from the 2-naphthol-6-sulfonate anion versus the initial pH of the solution. Individual points represent the average of four to six separate streak camera exposures. […] At very high acidities, the protonation rate becomes so rapid that the temporal profile of the excited anion emission follows that of the protonated species.
By measuring the time history of both anionic and acidic species under a variety of experimental conditions and using a kinetic scheme which includes terms for the fluorescence lifetimes and quenching, the complete kinetics of the excited state protonation deprotonation are readily obtained. For 2-naphthol-6-sulfonate, kf =(1.02±0.3)×10^9 sec^-1 and kb =(9.0±3)×10^10 l-mole^-1 -sec^-. The solid line of FIG. 4 is a fit using a kinetic model with kf and kb having these values.

The conditions of series [6]: ground state, cited from earlier work.
The conditions of series [7]: cited from earlier work.
A short description of series [8]: pH jump (more basic) by irradiation of coumarin 102 solution. In kind it is physicochemical. The source says:
(§1) A proton attaches at the carbonyl site by the reaction [formula] Here Kp is the protonation rate constant and kdp is the deprotonation rate constant.
(§2) Experimental runs utilized laser grade coumarin 102 (Eastman) which was maintained at a concentration of 1.0×10^-3 M in a 1:1 H2 O:ethanol solvent. Deionized, distilled water and reagent grade ethanol were used for all of the runs. The solution pH was varied by the addition of reagent grade HCl and measured to an accuracy of 0.05 pH unit with a pH meter (Markson 90). The apparatus of FIG. 3 was modified to the extent that ADP crystal 8 was replaced by a KDP sum frequency generator to produce […] radiation which excited the sample. Filter 9 was either a 435 nm interference filter or a Corning 2-62 filter to isolate fluorescence from coumarin 102 and its cation, respectively.

Series [9] can be described thus: Excited state protonation of coumarin 102 by time-resolved fluorescence. In kind it is physicochemical.
Excerpt: as §1, §2
The experimental runs were made to obtain measurements of the time history of both species under a variety of experimental conditions.

Setting [10] is: 1.0×10^-3 M in water, 266 nm, 20 psec pulse.
The mark [11] stands for this setting: reaction as drawn in the line of Table II.

“Also recorded” adds a separate entry of the source. Where two headings read alike, the source gives them in different places. Where only a bound is given, the exact number is not on record here.

On to `O=S(=O)(O)c1ccc2cc(O)ccc2c1` [2-Naphthol-6-Sulfonate], for which, in series [1], the “pK change upon excitation” value came to 7. In series [2], the “excited state acid-base equilibrium” value was “excited state acid-base equilibrium is achieved” and the excited state lifetime result is reported as “about 10 nsec”. The “increase in H3O^+” value in [2] (20 psec, 266 nm pulse, typically 30 μJ) is given as “more than 10^-4 M”. For the same compound, the proton transfer time result in series [2] (excited state) is listed as “less than 1 nsec”. For the same compound, the “pK(S0)” value in series [3] was 9.1. In series [4], the excited state lifetime came out at 1e-08 s; the proton transfer time result was “less than 1×10^-9 sec”; the “ability to produce pH change” value was “can be used to produce large and very rapid pH modulation”. In addition, the “results with freshly prepared and day-old solutions” value in series [5] (1.0×10^-3 M in water) is listed as “identical”. Moreover, in series [5] (setting [10]), the “rate of excited state deprotonation/proton transfer, kf” value is “(1.02±0.3)×10^9 sec^-1” and the “rate of excited state protonation, kb” value is “(9.0±3)×10^10 l-mole^-1 -sec^-”. Moreover, the “risetime (10-90%) of anion emission versus initial pH” value in series [5] (450±10 nm, initial pH varied) was “As the solution becomes more acidic, the risetime becomes more rapid”.

In the case of `Oc1ccc2ccccc2c1` [2-Naphthol], the “pK(S0)” value in [3] is 9.5. In addition, in series [4], the excited state lifetime is recorded as ~ 6×10^-9 sec, the proton transfer time worked out at 2e-08 s and the “ability to produce pH change” value was “cannot; also recorded: the amount of the change is substantially less than that which can be achieved with 2-naphthol-6-sulfonate”.

Take `Nc1ccc2ccccc2c1` [2-Naphthylamine]: the “pK(S0)” value in [6] (setting [11]) is no less than 14; in [6] (second 2-Naphthylamine line, reaction drawing 7), 4.1.

As to `c1ccc2nc3ccccc3cc2c1` [Acridine], the “pK(S0)” value in series [6] (setting [11]) is reported as 5.5.

For the compound `c1ccc(N=Nc2ccccc2)cc1` [Azobenzene], the “pK(S0)” value in series [6] (setting [11]) was -2.90.

Take `c1ccc2c(c1)Cc1ccccc1-2` [Fluorene, reference compound]: in [1], the “pK change upon excitation” value is recorded as 29.

`c1ccc2ccccc2c1` [Naphthalene]: in [6] (setting [11]), the “pK(S0)” value is recorded as -4.0.

With `c1ccc2c(c1)ccc1ccccc12` [Phenanthrene, reference compound], the “acidity/basicity in ground and excited state” value in [3] (ground state versus first excited singlet state) is “becomes less acidic (more basic) in the excited state”. For the same compound, the “pK(S0)” value in series [3] is reported as -3.5.

For the compound `O=c1c2ccccc2oc2ccccc12` [Xanthone], the triplet state lifetime result in [7] is on record as “several to tens of milliseconds”. Also, in series [6] (setting [11]), the “pK(S0)” value is -4.1.

As to `O=C(c1ccccc1)c1ccccc1` [benzophenone], the triplet state lifetime result in series [7] was “several to tens of milliseconds”.

Consider `Cc1cc(=O)oc2c3c4c(cc12)CCCN4CCC3` [coumarin 102], for which the “quenching of excited states” value in [8] (concentrations near 10^-3 M) is reported as “no evidence of quenching of excited states”. In addition, the “pH after pH jump” value in [8] (initial pH 4, 355 nm pulses >1 mJ) came out at 4.1. In series [9] (1:1 H2O:ethanol), the “deprotonation during excited state lifetime” value was “very small” and the “excited state acid-base equilibrium” value is recorded as “excited state acid-base equilibrium is not achieved”. The excited state lifetime in series [9] (1.0×10^-3 M in 1:1 H2O:ethanol) came to 3.3±0.3 nsec. The “excited state protonation rate constant kp” value in series [9] (1.0×10^-3 M in 1:1 H2O:ethanol, 355 μm (so in the source) excitation) was “(1.6 ±0.3)×10^10 l-mole^-1 -sec^-1”.

The values above are taken from patent US4287035A, “Method for producing rapid pH changes” (priority 1979, dated 1981).
